Assay results taken from publication PMC8071358, “Targeting of the Essential acpP, ftsZ, and rne Genes in Carbapenem-Resistant Acinetobacter baumannii by Antisense PNA Precision Antibacterials” (Biomedicines, 2021).
{(KFF)3K-eg1} = H-(KFF)3K peptide (K lysine, F phenylalanine) with eg1 linker (8-amino-3,6-dioxaoctanoyl), on the PNA N terminus (5' end); {NH2} = C-terminal amide

Experiments:
A. baumannii SSI1104 = assay: BPP-PNA MIC, broth microdilution; type: cell-based, Acinetobacter baumannii
Experimental: (§1) MIC values were determined by broth microdilution according to standard protocols with a few modifications. […] Then, 180 µL bacterial solutions were dispensed into a low-bind 96-well plate (Thermo-Scientific, Roskilde, Denmark) along with 20 µL of BPP-PNA compound (BPP-PNA was serially diluted 2-fold from 16 to 0.5 µM in a 96-well plate). The plate was incubated in a Tecan Genios plate reader (GMI, Minnesota, Ramsey, USA) at 37 °C for 18 h with linear shaking, OD was measured every 20 min at 595 nm. […] The minimum bactericidal concentration (MBC) values were determined by plating 10 µL samples from the wells with no visible turbidity onto Mueller–Hinton agar plates. The MBC is determined the lowest concentration of BPP-PNA that reduces the viability of the initial bacterial inoculum by ≥99.9% (3-log reduction in CFU/mL). A minimum of two independent experiments (biological replicates) of the assay were conducted, and two technical replicates were used in each experiment for each bacterium, compound, and concentration.

CRAB strain AC46 = assay: BPP-PNA MIC, broth microdilution; type: cell-based, Acinetobacter baumannii
Experimental: as §1

CRAB strain AC1 = assay: BPP-PNA MIC, broth microdilution; type: cell-based, Acinetobacter baumannii; conditions: MHB without cation (Oxoid); 37 °C, 18 h
Experimental: (§2) MIC values were determined by broth microdilution according to standard protocols with a few modifications. An overnight bacterial cell culture was diluted to approximately 5 × 10^5 CFU/mL in non-cation-adjusted Muller Hinton Broth (MHB). Then, 180 µL bacterial solutions were dispensed into a low-bind 96-well plate (Thermo-Scientific, Roskilde, Denmark) along with 20 µL of BPP-PNA compound (BPP-PNA was serially diluted 2-fold from 16 to 0.5 µM in a 96-well plate). The plate was incubated in a Tecan Genios plate reader (GMI, Minnesota, Ramsey, USA) at 37 °C for 18 h with linear shaking, OD was measured every 20 min at 595 nm. […] The minimum bactericidal concentration (MBC) values were determined by plating 10 µL samples from the wells with no visible turbidity onto Mueller–Hinton agar plates. The MBC is determined the lowest concentration of BPP-PNA that reduces the viability of the initial bacterial inoculum by ≥99.9% (3-log reduction in CFU/mL). A minimum of two independent experiments (biological replicates) of the assay were conducted, and two technical replicates were used in each experiment for each bacterium, compound, and concentration.

CRAB strain AC4 = assay: BPP-PNA MIC, broth microdilution; type: cell-based, Acinetobacter baumannii; conditions: MHB without cation (Oxoid); 37 °C, 18 h
Experimental: as §2

CRAB strain AC6 = assay: BPP-PNA MIC, broth microdilution; type: cell-based, Acinetobacter baumannii; conditions: MHB without cation (Oxoid); 37 °C, 18 h
Experimental: as §2

CRAB strain AC8 = assay: BPP-PNA MIC, broth microdilution; type: cell-based, Acinetobacter baumannii; conditions: MHB without cation (Oxoid); 37 °C, 18 h
Experimental: as §2

A. baumannii ATCC 19606 = assay: BPP-PNA MIC, broth microdilution; type: cell-based, Acinetobacter baumannii; conditions: 37 °C, 18 h
Experimental: as §2

CRAB strain AC7 = assay: BPP-PNA MIC, broth microdilution; type: cell-based, Acinetobacter baumannii; conditions: MHB without cation (Oxoid); 37 °C, 18 h
Experimental: as §2

CRAB strain AC2 = assay: BPP-PNA MIC, broth microdilution; type: cell-based, Acinetobacter baumannii
Experimental: as §2

CRAB strain AC5 = assay: BPP-PNA MIC, broth microdilution; type: cell-based, Acinetobacter baumannii; conditions: MHB without cation (Oxoid); 37 °C, 18 h
Experimental: as §2

CRAB strain AC9 = assay: BPP-PNA MIC, broth microdilution; type: cell-based, Acinetobacter baumannii; conditions: MHB without cation (Oxoid); 37 °C, 18 h
Experimental: as §2

CRAB strain AC44 = assay: BPP-PNA MIC, broth microdilution; type: cell-based, Acinetobacter baumannii
Experimental: as §2

CRAB strain AC3 = assay: BPP-PNA MIC, broth microdilution; type: cell-based, Acinetobacter baumannii; conditions: MHB without cation (Oxoid); 37 °C, 18 h
Experimental: as §2

CRAB strains = assay: BPP-PNA MIC/MBC summarised over the panel of strains; type: cell-based, Acinetobacter baumannii; conditions: for MIC (complete growth inhibition) over the CRAB strains tested: several A. baumannii strains
Experimental: as §2

[1] = tested on: antibiotic resistant clinical isolate AC46; assay: Minimum bactericidal concentration (MBC) assay; type: cell-based, Acinetobacter baumannii; conditions: AC46, 24 h incubation, 1–8 μM
Experimental: as §2

P. aeruginosa (PAO1) = assay: BPP-PNA MIC, broth microdilution; type: cell-based, Pseudomonas aeruginosa; conditions: non-target species; MHB without cation (Oxoid)
Experimental: as §2

E. coli K-12 MG1655 = assay: BPP-PNA MIC, broth microdilution; type: cell-based, Escherichia coli; conditions: non-target species; MHB without cation (Oxoid)
Experimental: as §2

[2] = tested on: acpP mRNA in CRAB AC44 strain; assay: Real-time RT-PCR of target mRNA; type: cell-based, Acinetobacter baumannii; conditions: AC44, 1 h treatment, normalised to 16S rRNA, against untreated control
Experimental: Real time RT-PCR was used to determine the relative expression level of the target gene upon treatment with match BPP-PNA compared to mismatch and untreated controls. The primers for q-PCR were designed to match conserved gene sequences using the AlleleID7 software (Premier Biosoft, San Francisco, CA, USA) (Table S6). Additionally, for more accurate expression of the genes at treatment and untreated conditions, the efficacy of target gene and internal controls primers was calculated by using three consecutive dilutions of the sample cDNA and drawing a standard curve through the slope of the line. […] Statistical analysis was carried out on the gene expression levels normalized to the chosen reference gene (16S rRNA) through −∆Ct analysis. The relative expression of each gene was determined by the 2^−ΔΔCT method. We used the GenEx standard (NormFinder and GeNorm) software (bioMCC, Germany) for analyzing the data.
An overnight culture of bacteria was diluted 1:100 in MHB medium and was grown with shaking (160 rpm) at 37 °C to reach the OD595 = 0.2. Then, the bacterial culture was treated with different concentrations of BPP-PNA for 1 h and the bacterial cells were harvested by centrifugation and the cell pellet used for RNA extraction.
Total RNA was isolated using the GeneJET RNA purification kit (ThermoFisher Scientific, Roskilde, Denmark) following the manufacturer’s protocol. RNA samples were treated with DNase for 30 min at 37 °C (Turbo DNA-free kit Ambion/Applied Biosystems, Carlsbad, CA, USA) and then incubated at 72 °C for 5 min to inactivate the DNase. The genomic DNA (gDNA) contamination was checked by polymerase chain reaction (PCR). RNA concentrations were determined by Nanodrop spectrophotometry at 260 nm and purity was checked by determining the absorption ratios at 260/280 nm. Total RNA (0.5 μg) was reverse-transcribed to yield cDNA as template for real-time quantitative PCR using the Quanti Tect reverse transcription kit (Qiagen, Copenhagen, Denmark). The cDNA was diluted 1:50 and used as a template in the reaction. […]

[3] = MHB without cation (Oxoid), 37 °C, 18 h
[4] = Table 4 (anti-rne), brand of medium not given, non-cation-adjusted MHB by method
[5] = Sigma MHB medium without cation, 37 °C, 18 h
[6] = Sigma MHB medium without cation, ~5 × 10^5 CFU/mL, OD595 < 0.1
[7] = Oxoid MHB medium, cation adjusted, 37 °C, 18 h

H-(KFF)3K-eg1-GAGTCCAGGAC-NH2 (all peptide nucleic acid (PNA), 5' {(KFF)3K-eg1}, 3' {NH2}) [PNA 5615, anti-ftsZ mismatch control of 5612]
MIC, SSI 1104 (A. baumannii SSI1104; [3]): 16 µM
MIC, AC46 (CRAB strain AC46; [3]): 16 µM
MIC, AC1 (CRAB strain AC1): 16 µM
MIC, AC4 (CRAB strain AC4): 16 µM
MIC, AC6 (CRAB strain AC6): 8 µM
MIC, AC8 (CRAB strain AC8): 16 µM
MIC, ATCC 19606 (A. baumannii ATCC 19606; MHB without cation (Oxoid)): 8 µM
MIC, AC7 (CRAB strain AC7): 16 µM
MIC, AC2 (CRAB strain AC2; [3]): 16 µM
MIC, AC5 (CRAB strain AC5): 16 µM
MIC, AC9 (CRAB strain AC9): 16 µM
MIC, AC44 (CRAB strain AC44; [3]): 16 µM
MIC, AC3 (CRAB strain AC3): 8 µM
MIC50 (CRAB strains; over the CRAB and ATCC 19606 strains of Table 3, MHB without cation (Oxoid)): 16 µM

H-(KFF)3K-eg1-TTTCATGGGTG-NH2 (antisense; N-terminal (KFF)3K-eg1 peptide, C-terminal amide, backbone not given here, further chemistry not given here) [PNA 5656, anti-rne peptide-PNA conjugate, match, −5 to +6]
MIC, SSI 1104 (A. baumannii SSI1104; [4]): 2 µM
MIC, AC46 (CRAB strain AC46; [4]): 2 µM
CFU reduction in MBC assay compared to mismatch control [1]: very significant CFU reduction
MIC, ATCC 19606 (A. baumannii ATCC 19606; [4]): 2 µM
MIC, AC2 (CRAB strain AC2; [4]): 2 µM
MIC, AC44 (CRAB strain AC44; [4]): 2 µM
concentration with bactericidal activity against carbapenem-resistant A. baumannii (CRAB strains): 4 µM
bactericidal concentration relative to MIC (CRAB strains; CRAB strains): 1–2 × MIC
MIC (complete growth inhibition) over the CRAB strains tested (CRAB strains): 2 µM
MIC of match PNA lower than mismatch control (mismatch discrimination) (CRAB strains; strains of Table 2 (5612 vs 5615) or Table 4 (5656 vs 5822)): four-fold

H-(KFF)3K-eg1-ATATCGCTCAC-NH2 (all peptide nucleic acid (PNA), 5' {(KFF)3K-eg1}, 3' {NH2}) [PNA 5652, anti-acpP peptide-PNA conjugate, match, +40 to +50]
MIC, SSI 1104 (A. baumannii SSI1104; [3]): 4 µM
MIC, SSI 1104 (A. baumannii SSI1104; [5]): 4 µM
MIC, AC46 (CRAB strain AC46; [5]): 4 µM
MIC, ATCC 19606 (A. baumannii ATCC 19606; MHB without cation (Oxoid)): 4 µM
MIC, ATCC 19606 (A. baumannii ATCC 19606; [6]): 4 µM
MIC, AC2 (CRAB strain AC2; [5]): 4 µM
MIC, AC44 (CRAB strain AC44; [5]): 4 µM
MIC, P. aeruginosa (PAO1) (P. aeruginosa (PAO1)): 16 µM
MIC (complete growth inhibition) over the CRAB strains tested (CRAB strains): 4 µM
MIC, E. coli K-12 MG1655 (E. coli K-12 MG1655): 16 µM

H-(KFF)3K-eg1-TGACTTGTCAC-NH2 (all peptide nucleic acid (PNA), 5' {(KFF)3K-eg1}, 3' {NH2}) [PNA 5640, anti-acpP mismatch control of 5639]
reduction in the level of the acpP mRNA [2]: 4 fold
MIC, SSI 1104 (A. baumannii SSI1104; [7]): 4 µM
MIC, SSI 1104 (A. baumannii SSI1104; [5]): 4 µM
MIC, AC46 (CRAB strain AC46; [7]): 4 µM
MIC, AC46 (CRAB strain AC46; [5]): 4 µM
MIC, ATCC 19606 (A. baumannii ATCC 19606; Oxoid MHB medium, cation adjusted): 4 µM
MIC, ATCC 19606 (A. baumannii ATCC 19606; [6]): 4 µM
MIC, AC2 (CRAB strain AC2; [7]): 4 µM
MIC, AC2 (CRAB strain AC2; [5]): 4 µM
MIC, AC44 (CRAB strain AC44; [7]): 4 µM
MIC, AC44 (CRAB strain AC44; [5]): 4 µM
